The record followed here is ChEMBL document CHEMBL1145614, “Antagonists of the human adenosine A2A receptor. Part 3: Design and synthesis of pyrazolo[3,4-d]pyrimidines, pyrrolo[2,3-d]pyrimidines and 6-arylpurines” (Bioorg Med Chem Lett, 2008).

In assay [1] the test system is Mus musculus. Description: Reversal of haloperidol-induced hypolocomotion in mouse at 30 mg/kg, ip. Format: functional, organism-based. Set-up: dose 30 mg/kg.
Assay [2] addresses Adenosine receptor A2a (Homo sapiens, UniProt P29274).
Description: Binding affinity at human adenosine A2A receptor
Assay [3] relates to Mus musculus. Description: Reversal of haloperidol-induced hypolocomotion in mouse at 30 mg/kg, po. The arrangement: dose 30 mg/kg. The class given is functional, organism-based.
In assay [4] the test system is Mus musculus. Put plainly: Reversal of haloperidol-induced hypolocomotion in po dosed mouse. The class given is functional. The note with it: read-out: MED.
For assay [5], the system named is Mus musculus. Description: Reversal of haloperidol-induced hypolocomotion in ip dosed mouse. Format: functional. The settings on record: read-out: MED.
Assay [6] concerns Mus musculus. Put plainly: Reversal of haloperidol-induced hypolocomotion in mouse at 10 mg/kg, po. The class given is functional, organism-based. The arrangement: dose 10 mg/kg.
In assay [7] the test system is Mus musculus. Description: Reversal of haloperidol-induced hypolocomotion in mouse at 1 mg/kg, po. The arrangement: dose 1 mg/kg. Format: functional, organism-based.
Assay [8] has as its system Mus musculus. Description: Reversal of haloperidol-induced hypolocomotion in mouse at 10 mg/kg, ip. Set-up: dose 10 mg/kg. Format: functional, organism-based.

SMILES strings stand for the structures. Calls of active or inactive are those of the source.

Chain of Adenosine receptor A2a (P29274 whole entry): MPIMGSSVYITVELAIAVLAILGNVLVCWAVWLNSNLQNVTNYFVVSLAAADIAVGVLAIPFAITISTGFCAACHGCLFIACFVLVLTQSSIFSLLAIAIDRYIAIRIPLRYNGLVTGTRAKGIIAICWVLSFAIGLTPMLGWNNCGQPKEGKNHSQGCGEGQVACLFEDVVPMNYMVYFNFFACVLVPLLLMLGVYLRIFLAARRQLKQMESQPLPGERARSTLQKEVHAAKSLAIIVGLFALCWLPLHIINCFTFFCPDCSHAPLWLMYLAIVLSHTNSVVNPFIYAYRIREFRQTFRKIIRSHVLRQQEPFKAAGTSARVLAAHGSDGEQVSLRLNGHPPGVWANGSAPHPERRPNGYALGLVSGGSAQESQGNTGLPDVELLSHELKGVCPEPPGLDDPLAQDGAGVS

As for `C[C@@H](NC(=O)n1cnc2c(-c3ccco3)nc(N)nc21)c1ccccc1`, the result in assay [1] was inactive. In addition, in assay [2], the Ki amounted to 0.026 µM.
For `Cc1cccc(CNC(=O)n2cnc3c(-c4ccco4)nc(N)nc32)c1`, the outcome in assay [3] and in assay [1] was Active. Also, the minimal effective dose in assay [4] is 30 mg/kg; in assay [5], 1 mg/kg.
Turning to `Cc1cccc(Cn2cnc3c(-c4ccco4)nc(N)nc32)c1`, the result in assay [1] was Active. In addition, the Ki in assay [2] is 0.006 µM.
For `Nc1nc(-c2ccco2)c2ncn(Cc3ccc(C(F)(F)F)cc3)c2n1`, in assay [1], the outcome was Active.
With `Nc1nc(-c2ccccc2)c2ncn(C(=O)NCc3ccccc3)c2n1`, the result in assay [1] was Active. The molecule further registered a Ki in assay [2] of 0.017 µM.
Consider `Nc1nc(-c2ccco2)c2ncn(C(=O)NCc3ccc(F)cc3)c2n1`, for which the outcome in assay [1] was Active.
With `Nc1nc(-n2ccnn2)c2cnn(Cc3ccccc3F)c2n1`, the result in assay [1] was Active. The molecule also yielded a Ki in assay [2] of 0.071 µM.
Regarding `Nc1nc(-c2ccco2)c2ncn(C(=O)NCc3ccco3)c2n1`, the outcome in assay [3], in assay [1] and in assay [6] was Active. Moreover, the minimal effective dose is 10 mg/kg in assay [4] and less than 30 mg/kg in assay [5].
As for `C[C@H](NC(=O)n1cnc2c(-c3ccco3)nc(N)nc21)c1ccccc1`, the result in assay [1] was Active.
Turning to `Nc1nc(-c2ccco2)c2cc[nH]c2n1`, the outcome in assay [1] was Active. In assay [2], this molecule returned a Ki of 0.242 µM.
For `Nc1nc(-c2ccco2)c2ncn(Cc3ccccc3)c2n1`, the result in assay [1] was Active.
For the molecule `Nc1nc(-c2ccco2)c2ncn(Cc3cccc([N+](=O)[O-])c3)c2n1`, the result in assay [1] was inactive. The molecule also had a Ki in assay [2] of 0.085 µM.
For `Nc1cccc(Cn2ncc3c(-c4ccco4)nc(N)nc32)c1`, in assay [1], the outcome was Active.
For `Nc1nc(-c2ccco2)c2ncn(Cc3ccccc3F)c2n1`, in assay [1], the outcome was Active. For the same molecule, affinity in assay [2] was put at a Ki of 0.005 µM.
For `Nc1nc(-c2ccco2)c2cnn(CC3CCCCC3)c2n1`, in that order: “Active” and 0.045 µM.
For `CS(=O)(=O)c1ccc(Cn2ncc3c(-c4ccco4)nc(N)nc32)cc1`, in that order: “inactive” and 0.34 µM.
For the molecule `Cc1ccc(CNC(=O)n2cnc3c(-c4ccco4)nc(N)nc32)cc1`, the result in assay [1] was Active.
For `Nc1nc(-c2ccco2)c2cnn(Cc3c(F)cccc3F)c2n1`, the outcome in assay [1] was Active.
In the case of `Nc1nc(-c2ccco2)c2cnn(CCc3ccccc3)c2n1`, the result in assay [1] was inactive. Besides, the affinity in assay [2], expressed as Ki, was 0.11 µM.
Turning to `Nc1nc(-c2ccco2)c2ncn(C(=O)NCc3ccccc3)c2n1`, the outcome in assay [1] was Active.
Regarding `Nc1nc(-c2ccco2)c2ncn(Cc3cccc(Cl)c3)c2n1`, in assay [1], the result was inactive. The molecule also registered a Ki in assay [2] of 0.008 µM.
Turning to `Nc1nc(-c2ncc[nH]2)c2cnn(Cc3ccccc3F)c2n1`, the affinity in assay [2], expressed as Ki, was 2.09 µM.
For `COC(=O)c1cccc(Cn2cnc3c(-c4ccco4)nc(N)nc32)c1`, in assay [1], the result was inactive. The molecule also gave a Ki in assay [2] of 0.045 µM.
As for `Nc1nc(-c2ccco2)c2cnn(Cc3ccccc3F)c2n1`, in assay [1], the result was Active. In assay [2], the Ki is 0.004 µM.
For `Nc1nc(-c2ccco2)c2cn[nH]c2n1`, in that order: “Active” and 0.048 µM.
As to `Nc1nc(-c2ccco2)c2cnn(Cc3ccc(C(F)(F)F)cc3)c2n1`, the result in assay [1] was inactive.
With `Nc1nc(-c2ccccn2)c2cnn(Cc3ccccc3F)c2n1`, in assay [1], the result was Active.
For the molecule `OCCNc1nc(-c2ccco2)c2cnn(CCc3ccccc3)c2n1`, the outcome in assay [1] was inactive. Besides, in assay [2], the Ki is 0.135 µM.
For `Nc1nc(-c2ccco2)c2cnn(Cc3cccnc3)c2n1`, in that order: “Active” and 0.028 µM.
`Nc1nc(-c2ccco2)c2cnn(Cc3ccccc3)c2n1`: in assay [1], the result was Active. In assay [2], this molecule registered an inhibitory constant (Ki) of 0.003 µM.
In the same order, the values of `CSc1nc(-c2ccco2)c2ncn(C(=O)NCc3ccccc3)c2n1` are “inactive” and 0.013 µM.
For `Nc1nc(-c2cc[nH]n2)c2cnn(Cc3ccccc3F)c2n1`, in assay [1], the outcome was Active.
Regarding `Nc1nc(-c2cccs2)c2ncn(C(=O)NCc3ccccc3)c2n1`, the result in assay [1] was inactive. For the same molecule, affinity in assay [2] was put at a Ki of 0.013 µM.
For the molecule `Nc1nc(-c2ccco2)c2nc[nH]c2n1`, in assay [3], the result was inactive. The minimal effective dose in assay [4] amounted to 1 mg/kg; in assay [5] it was 10 mg/kg. Besides, the outcome in assay [1], in assay [7] and in assay [8] was Active. The affinity in assay [2], expressed as Ki, was 0.261 µM.
Turning to `Cn1ccnc1-c1nc(N)nc2c1cnn2Cc1ccccc1F`, in assay [1], the outcome was inactive. The molecule further displayed a Ki in assay [2] of 1.62 µM.
`Nc1cccc(Cn2cnc3c(-c4ccco4)nc(N)nc32)c1`: the result in assay [3] and in assay [1] was Active. Further, the minimal effective dose in assay [4] stood at 30 mg/kg; in assay [5] it was 10 mg/kg. The molecule also came in with an inhibition constant (Ki) in assay [2] of 0.023 µM.
Turning to `Nc1nc(-c2ccco2)c2ncn(C(=O)NCc3cccs3)c2n1`, the outcome in assay [3] and in assay [1] was Active. The minimal effective dose in assay [4] is 30 mg/kg; in assay [5], less than 30 mg/kg.
`Nc1nc(-c2ccco2)c2ncn(Cc3c(F)cccc3F)c2n1`: the outcome in assay [1] was Active.
For `Nc1nc(-c2ccco2)c2cnn(Cc3ccc([N+](=O)[O-])cc3)c2n1`, in assay [1], the result was inactive. In assay [2], this molecule registered an inhibition constant (Ki) of 0.119 µM.
For `Nc1nc(-c2ccco2)c2cnn(Cc3ccco3)c2n1`, in that order: “Active” and 0.036 µM.
In the same order, the values of `COC(=O)c1cccc(Cn2ncc3c(-c4ccco4)nc(N)nc32)c1` are “Active” and 0.004 µM.
As to `Nc1nc(-c2ccco2)c2ncn(Cc3cccc(C(=O)O)c3)c2n1`, the affinity in assay [2], expressed as Ki, was 4.1 µM.
Take `Nc1nc(-c2ccco2)c2cnn(Cc3ccccc3N)c2n1`: in assay [1], the outcome was Active.
In assay [2], `Cc1nc(-c2ccco2)c2ncn(C(=O)NCc3ccccc3)c2n1` displayed a Ki of 0.102 µM.
`COc1cccc(Cn2ncc3c(-c4ccco4)nc(N)nc32)c1`: in assay [1], the result was Active.
Same read-out and setting: the entry for `Nc1nc(-c2ccco2)c2cnn(Cc3ccccc3Cl)c2n1` is “inactive”.
Molecule `Nc1nc(-c2ccco2)c2ncn(Cc3ccc([N+](=O)[O-])cc3)c2n1` displayed a Ki in assay [2] of 0.372 µM.
For `Nc1nc(-c2ccco2)c2cnn(Cc3cccc(C(=O)O)c3)c2n1`, the outcome in assay [1] was inactive. In addition, the Ki in assay [2] turned out to be 1.32 µM.
For `Nc1nc(-c2ccco2)c2ncn(C(=O)Nc3ccccc3)c2n1`, in that order: “Active” and 0.206 µM.
In the same order, the values of `Cc1cccc(Cn2ncc3c(-c4ccco4)nc(N)nc32)c1` are “Active” and 0.003 µM.
Consider `Nc1nc(-c2ccco2)c2ncn(C(=O)NCCc3ccccc3)c2n1`, for which, in assay [1], the outcome was Active.
In the case of `Nc1nc(-c2cncs2)c2ncn(C(=O)NCc3ccccc3)c2n1`, the result in assay [1] was Active. Also, in assay [2], the Ki stood at 0.056 µM.
As to `Nc1nc(-c2ccco2)c2cnn(CCCc3ccccc3)c2n1`, in assay [1], the outcome was Active. Besides, the Ki in assay [2] was determined as 0.004 µM.
In the case of `COc1cccc(Cn2cnc3c(-c4ccco4)nc(N)nc32)c1`, the outcome in assay [1] was Active.
On to `Nc1nc(-c2cccs2)c2cnn(Cc3ccccc3F)c2n1`, for which the inhibition constant Ki in assay [2] came to 0.009 µM.
With `Nc1nc(-c2ccco2)c2ncn(C(=O)NCc3ccccc3Cl)c2n1`, the result in assay [1] was Active.
Turning to `Nc1nc(-c2ccco2)c2cnn(Cc3ccccc3[N+](=O)[O-])c2n1`, the outcome in assay [1] was inactive. In assay [2], this molecule showed a Ki of 0.026 µM.
For the molecule `Nc1nc(-c2ccco2)c2cnn(Cc3cccc(Cl)c3)c2n1`, the result in assay [1] was Active.
Same read-out and setting: as for `Nc1nc(-c2ccco2)c2cnn(Cc3cccc([N+](=O)[O-])c3)c2n1`, the entry is “Active”.
As to `Nc1nc(-c2ccco2)c2cnn(C(=O)NCc3ccccc3)c2n1`, the outcome in assay [1] was Active. In assay [2], this molecule had a Ki of 0.001 µM.
Turning to `Nc1nc(-c2nccs2)c2cnn(Cc3ccccc3F)c2n1`, the result in assay [1] was inactive. In assay [2], this molecule returned a Ki of 0.017 µM.
For `CN(C)c1nc(-c2ccco2)c2ncn(C(=O)NCc3ccccc3)c2n1`, in that order: “inactive” and 0.023 µM.
With `CN(C)c1nc(-c2ccco2)c2cnn(CCc3ccccc3)c2n1`, the Ki in assay [2] stood at 1.89 µM.
The same measure, in the same setting: as for `CS(=O)(=O)c1ccc(Cn2cnc3c(-c4ccco4)nc(N)nc32)cc1`, the figure is 0.779 µM.

For orientation: Ki means a dissociation constant, usually derived from enzyme kinetics or from competition with a known ligand. Low readings indicate a stronger hold on the target, high ones a looser hold on the target.
